# Like-named read-outs stand apart in the source and are kept apart here.
# Tested on: HT-29 cells
# Experiment: Necroptosis assay (TNF-α/Smac mimetic/z-VAD, TSZ-induced) in HT-29 cells
# Type: cell-based, human
# Procedure: Methods: HT-29 cells were cultured in McCoy's 5 A culture medium (Invitrogen). On day one, HT-29 cells were plated in 96-well assay plates at density of 2,500-3,500 cells per well. On day two, necrosis were induced by adding 20 ng/ml TNF-α (T), 100 nM Smac mimetic (S), and […] z-VAD (Z). At the same time, 10 mM compound from a chemical library of ˜200,000 compounds was delivered into each well. After 24 hrs treatment, cell viability was determined by measuring ATP level using the Cell Titer-Glo Luminescent Cell Viability Assay kit. A CellTiter-Glo Assay (Promega) was performed according to the manufacturer's instructions. Luminescence was recorded with a PerkinElmer EnSpire Multimode Plate Reader. Survived cells were normalized to those cells treated with DMSO. RIPA-56 was used as a positive control for screening necroptosis inhibitors. Data are represented as mean±standard deviation of duplicates.
# In previous work, we performed a cell-based high-throughput screen to identify necroptosis inhibitors using a chemical library of ˜200,000 compounds and identified multiple compounds that protected human colorectal adenocarcinoma (HT-29) cells from TNF-α/Smac mimetic/Z-VAD-fmk (TSZ)-induced necroptosis.^[4]
# The anti-necroptosis potency of compounds 7-12 and 14-18 was evaluated in the HT-29 cell line; the EC50 values are shown in Table B.
# [a] Necroptosis was induced in HT-29 cells for 24 h; the EC50 values given here are the mean values of at least three independent analyses.
# [1] = Series 1 (Table 1) compounds 1-146, HT-29 cells, TNF-α/Smac mimetic/z-VAD, 24 hrs, cell viability by ATP level, read-out: Series 1 compound necroptosis activity
# [2] = Series 1 (Table 1) compounds 147-176, activity extrapolated, read-out: Series 1 compound necroptosis activity (extrapolated)
# [3] = Homo sapiens, Series 1 (Table 1) compounds 1-146, HT-29 cells, TNF-α/Smac mimetic/z-VAD, 24 hrs, cell viability by ATP level, read-out: Series 1 compound necroptosis activity
# [4] = Homo sapiens, Series 2 (Table 2) compounds, HT-29 necroptosis assay, read-out: Series 2 compound necroptosis activity
structure (smiles),measurement,setting,value
"CCCn1c(S(C)(=O)=O)nc2c1c(=O)n(C)c(=O)n2C [Compound 83, 1,3-dimethyl-8-(methylsulfonyl)-7-propyl-1H-purine-2,6(3H,7H)-dione]",EC50,[1],1 to 1000 µM
"CCCS(=O)(=O)c1nc2c(c(=O)n(C)c(=O)n2C)n1CC [Compound 80, 7-ethyl-1,3-dimethyl-8-(propylsulfonyl)-1H-purine-2,6(3H,7H)-dione]",EC50,[1],1 to 1000 µM
Cn1c(=O)c2c(nc(S(=O)(=O)CCOCCO)n2C)n(CC#Cc2cccc(O)c2)c1=O [Compound 153],EC50,[2],1 to 1000 µM
"CNc1cc(C#CCn2c(=O)n(C)c(=O)c3c2nc(S(=O)(=O)Cc2cc(OC)ccc2OC)n3C)ccn1 [Compound 127, 8-((2,5-dimethoxybenzyl)sulfonyl)-1,7-dimethyl-3-(3-(2-(methylamino)pyridin-4-yl)prop-2-yn-1-yl)-3,7-dihydro-1H-purine-2,6-dione]",EC50,[3],1 to 10 µM
"COc1cc(CS(=O)(=O)c2nc3c(c(=O)n(C)c(=O)n3C)n2C)cc(OC)c1 [Compound 59, 8-(3,5-dimethoxybenzylsulfonyl)-1,3,7-trimethyl-1H-purine-2,6(3H,7H)-dione]",EC50,read-out: Series 1 compound necroptosis activity,1 to 1000 µM
"CSc1nc2c(c(=O)n(C)c(=O)n2C)n1C [Compound 2, 1,3,7-trimethyl-8-(methylthio)-1H-purine-2,6(3H,7H)-dione]",EC50,[1],1 to 1000 µM
Cn1c(=O)c2c(nc(S(=O)(=O)CC3CC3)n2C)n(CC#Cc2cc(NC(=O)C3CC3)nc(C(F)(F)F)c2)c1=O [Compound 45],EC50,[4],0.001 to 0.1 µM
"Cn1c(=O)c2c(nc(S(=O)(=O)CC3CC3)n2C)n(CC#Cc2cccc(NC(=O)OC(C)(C)C)c2)c1=O [Compound 123, tert-butyl(3-(3-(8-((cyclopropylmethyl)sulfonyl)-1,7-dimethyl-2,6-dioxo-1,2,6,7-tetrahydro-3H-purin-3-yl)prop-1-yn-1-yl)phenyl)carbamate]",EC50,"Series 1 (Table 1) compounds, HT-29 cells, TNF-α/Smac mimetic/z-VAD, 24 hrs, cell viability by ATP level, read-out: Series 1 compound necroptosis activity",0.001 to 1 µM
"CCOc1ccc(OC)cc1CS(=O)(=O)c1nc2c(c(=O)n(C)c(=O)n2C)n1C [Compound 65, 8-(2-ethoxy-5-methoxybenzylsulfonyl)-1,3,7-trimethyl-1H-purine-2,6(3H,7H)-dione]",EC50,[1],1 to 1000 µM
"Cn1c(=O)c2c(nc(S(=O)(=O)Cc3ccccc3)n2C)n(C)c1=O [Compound 21, 8-(benzylsulfonyl)-1,3,7-trimethyl-1H-purine-2,6(3H,7H)-dione]",EC50,[3],1 to 100 µM
"Cn1c(=O)c2c(nc(S(=O)(=O)Cc3ccc(Br)cc3)n2C)n(C)c1=O [Compound 34, 8-(4-bromobenzylsulfonyl)-1,3,7-trimethyl-1H-purine-2,6(3H,7H)-dione]",EC50,[1],1 to 1000 µM
"CCn1c(SC)nc2c1c(=O)n(C)c(=O)n2C [Compound 73, 7-ethyl-1,3-dimethyl-8-(methylthio)-1H-purine-2,6(3H,7H)-dione]",EC50,[1],1 to 1000 µM
"Cn1c(=O)c2c(nc(S(=O)(=O)CC3CC3)n2C)n(Cc2ccccc2Br)c1=O [Compound 139, 3-(2-bromobenzyl)-8-((cyclopropylmethyl)sulfonyl)-1,7-dimethyl-1H-purine-2,6(3H,7H)-dione]",EC50,[3],1 to 100 µM
Cn1c(=O)c2c(nc(S(=O)(=O)CC3CC3)n2C)n(CC#Cc2cc(NC(=O)CN3CCOCC3)ccc2Cl)c1=O [Compound 22],EC50,[4],0.001 to 0.1 µM
"Cn1c(=O)c2c(nc(S(=O)(=O)Cc3c(Cl)cccc3Cl)n2C)n(C)c1=O [Compound 57, 8-(2,6-dichlorobenzylsulfonyl)-1,3,7-trimethyl-1H-purine-2,6(3H,7H)-dione]",EC50,[1],1 to 1000 µM
CCCNc1cccc(C#CCn2c(=O)n(C)c(=O)c3c2nc(S(C)(=O)=O)n3C)c1 [Compound 162],EC50,[2],1 to 1000 µM
"Cn1c(=O)c2c(nc(S(=O)(=O)CCc3cn(CCOCCOCCOCCNC(=O)CCCC[C@@H]4SCC5NC(=O)NC54)nn3)n2C)n(C)c1=O (stereo partly drawn) [Compound 25, 5-((4S)-2-oxohexahydro-1H-thieno[3,4-d]imidazol-4-yl)-N-(2-(2-(2-(2-(4-(2-(1,3,7-trimethyl-2,6-dioxo-2,3,6,7-tetrahydro-1H-purin-8-ylsulfonyl)ethyl)-1H-1,2,3-triazol-1-yl)ethoxy)ethoxy)ethoxy)ethyl)pentanamide]",EC50,[1],1 to 1000 µM
